Data from patent US20240189311A1, “Combination Therapy of Obicetrapib and Ezetimibe for Use in Statin Intolerant Patients Suffering from Hyperlipidemia or Mixed Dyslipidaemia” (NEWAMSTERDAM PHARMA B.V., priority 2021, published 2024).
Read-outs that look alike come from different tables or passages of the source.

Assays:
[1] = system: LDL-C; details: cited from earlier work
[2] = system: HDL-C; details: cited from earlier work
[3] = cited from earlier work; for Phase III clinical trial outcome (in words): anacetrapib: 30.000 patient REVEAL trial
[4] = system: low-density lipoprotein cholesterol (LDL-C); assay: Phase 2 study of obicetrapib and ezetimibe in mild dyslipidaemia: LDL-C by Friedewald formula; type: in vivo, human
From the text: (§1) Study drugs will be administered by the participant orally and once daily on Days 1 through 57. Study drugs should be administered at approximately the same time each morning, with food. On days with visits scheduled, study drugs should be administered with food following all fasted blood samples. If a participant forgets to take study drug on a given day, they should take the next dose as normal and should not take a double dose to make up for the forgotten dose.
(§2) Up to 2 weeks after the Screening Visit, participants will return to the site on Day 1 (Visit 2) to be randomized and begin treatment. Approximately 100 eligible participants (25 participants per treatment group) will be randomized in a 1:1:1:1 ratio to 1 of the following treatment groups: • Combination therapy: 5 mg obicetrapib+10 mg ezetimibe; • Obicetrapib monotherapy: 5 mg obicetrapib+placebo ezetimibe; • Ezetimibe monotherapy: placebo obicetrapib+10 mg ezetimibe; or • Placebo: placebo obicetrapib+placebo ezetimibe.
LDL-C level was collected using the following 2 approaches: • 1. At each scheduled visit, LDL-C level was calculated using the Friedewald formula; and • 2. In addition, at baseline (Day 1) and at the end of the 8-week Treatment Period (Day 57), LDL-C was measured for all participants by preparative ultracentrifugation (PUC). Primary Efficacy Endpoint Primary analysis
The primary efficacy analysis of the percent change from Day 1 to Day 57 in LDL-C was performed using a mixed model for repeated measures (MMRM) approach. The analysis included fixed effects for treatment, visit, and treatment-by-visit interaction, along with a covariate of the baseline value as a continuous covariate. Randomization was stratified by categories of LDL-C value (<3.5 mmol/L [<135 mg/dL] or >3.5 mmol/L [≥135 mg/dL]) only to ensure similar distribution of LDL-C across all treatment groups; however, the MMRM model included the original scale of the LDL-C value as a continuous covariate. The Restricted Maximum Likelihood estimation approach was used with an unstructured covariance matrix. The least squares (LS) means, standard errors, and 2-sided 95% confidence intervals (CIs) for each treatment group, for the pairwise comparisons of the combination therapy, obicetrapib monotherapy, and ezetimibe monotherapy to placebo, and for the pairwise comparisons of combination therapy and obicetrapib monotherapy versus ezetimibe monotherapy are provided. The treatment comparison was performed using a 2-sided test at the α=0.05 level of significance.
Similar MMRM models were used for the exploratory efficacy endpoints. The proportion of participants at Day 57 that achieved LDL-C<2.6 mmol/L (<100 mg/dL), LDL-C<1.8 mmol/L (<70 mg/dL), and LDL-C<1.3 mmol/L (<50 mg/dL) were examined through Logistic Regression Models for binary variables with covariates of the treatment groups and the baseline variable.
This study was a placebo-controlled, double-blind, randomized Phase 2 study in participants with mild dyslipidemia to evaluate the efficacy, safety, and tolerability of obicetrapib and ezetimibe combination therapy. The primary efficacy endpoint was percent change from Day 1 to Day 57 in LDL-C for the obicetrapib 5 mg+ezetimibe 10 mg group compared to the placebo group.

[5] = system: apolipoprotein B (ApoB); assay: Phase 2 study of obicetrapib and ezetimibe in mild dyslipidaemia: ApoB; type: in vivo, human; details: mITT population, oral once daily
From the text: as §1, §2
Similar MMRM models were developed to examine the percent change from Day 1 to Day 57 in LDL-C (for other pairwise treatment group comparisons beside the analysis specified for the primary efficacy endpoint, using the Friedewald formula) or ApoB. In order to maintain the overall Type 1 error rate, the secondary efficacy endpoints were tested sequentially at the 0.05 significance level according to the pre-specified order of hierarchy. This applied to the following analyses: • Percent change from Day 1 to Day 57 in LDL-C for the obicetrapib monotherapy group compared to the placebo group; • Percent change from Day 1 to Day 57 in ApoB for the combination therapy group compared to the placebo group; • Percent change from Day 1 to Day 57 in ApoB for the obicetrapib monotherapy group compared to the placebo group; • Percent change from Day 1 to Day 57 in LDL-C for combination therapy group compared to the ezetimibe monotherapy group; • Percent change from Day 1 to Day 57 in LDL-C for the obicetrapib monotherapy group compared to the ezetimibe monotherapy group; • Percent change from Day 1 to Day 57 in LDL-C, for the ezetimibe monotherapy group compared to the placebo group; and • Percent change from Day 1 to Day 57 in ApoB for the combination therapy group compared to the ezetimibe monotherapy group.

[6] = Phase 2 study: safety and tolerability (adverse events); type: in vivo, human
From the text: The Safety Population included all participants who received at least 1 dose of any study drug. Treatment classification was based on the actual treatment received. The Safety Population was the primary population used for the safety analyses.
The Safety Population was the primary population for the safety analyses. All safety endpoints are summarized descriptively. No statistical inference was applied to the safety endpoints.
AEs were categorized by primary system organ class (SOC) and preferred term (PT) as coded using the Medical Dictionary for Regulatory Activities (version 23.0) category designations. Summaries of AEs, including the count and percentage of participants who experienced an AE, are provided.
An overview of treatment-emergent adverse events (TEAEs) is provided, including counts and percentages of participants (and event counts).
Listings are presented specifically for TEAEs, treatment-emergent serious adverse events (TESAEs), and TEAEs leading to discontinuation of study drug.

[7] = mITT population, mild dyslipidaemia, oral once daily, Day 57
[8] = mITT population, oral once daily, baseline to Day 57
[9] = torcetrapib dosed at 60 mg, Phase III clinical trials

CCC(CC)CC1(C(=O)Nc2ccccc2SC(=O)C(C)C)CCCCC1 [Dalcetrapib]
Effects on LDL-C concentrations (in words) ([1]; dalcetrapib clinical trials): minimal effects | Increase of HDL-C ([2]; dalcetrapib clinical trials): 30-40%

Cc1cc(C)c2c(c1)[C@@H](N(Cc1cc(C(F)(F)F)cc(C(F)(F)F)c1)c1nnn(C)n1)CCCN2C[C@H]1CC[C@H](C(=O)O)CC1 [Evacetrapib]
Phase III clinical trial outcome (in words) [3]: failed to pass a futility interim analysis

O=C1[C@H](CC[C@H](O)c2ccc(F)cc2)[C@@H](c2ccc(O)cc2)N1c1ccc(F)cc1 [Ezetimibe 10 mg, (3R,4S)-1-(4-fluorophenyl)-3-[(3 S)-3-(4-fluorophenyl)-3-hydroxypropyl]-4-(4-hydroxyphenyl)azetidin-2-one]
Number of participants that achieved LDL-C<70 mg/dL by Friedewald formula ([4]; Day 57): 1 participants | Number of participants that achieved LDL-C<100 mg/dL by Friedewald formula ([4]; Day 57): 8 participants | Percentage of participants that achieved LDL-C<70 mg/dL by Friedewald formula ([4]; Day 57): 3.6% | Percentage of participants that achieved LDL-C<100 mg/dL by Friedewald formula ([4]; Day 57): 28.6% | LDL-C by Friedewald formula at Day 57, mean [4, 7]: 109.1 mg/dL | LDL-C by Friedewald formula at Day 57, median [4, 7]: 109.0 mg/dL | Change from baseline to Day 57 in LDL-C by Friedewald formula, mean [4, 8]: -18.0 mg/dL | Change from baseline to Day 57 in LDL-C by Friedewald formula, median [4, 8]: -19.0 mg/dL | Percent change from baseline to Day 57 in LDL-C by Friedewald formula, mean [4, 8]: −12.69% | Percent change from baseline to Day 57 in LDL-C by Friedewald formula, median [4, 8]: −14.80% | ApoB at Day 57, mean ([5]; mild dyslipidaemia, Day 57): 94.8 mg/dL | ApoB at Day 57, median ([5]; mild dyslipidaemia, Day 57): 94.0 mg/dL | Change from baseline to Day 57 in ApoB, mean ([5]; baseline to Day 57): -9.5 mg/dL | Change from baseline to Day 57 in ApoB, median ([5]; baseline to Day 57): -8.0 mg/dL | Percent change from baseline to Day 57 in ApoB, mean ([5]; baseline to Day 57): −8.78% | Percent change from baseline to Day 57 in ApoB, median ([5]; baseline to Day 57): −8.90% | Participants who experienced at least 1 TEAE, number ([6]; Safety Population): 8 participants | Participants who experienced at least 1 TEAE, percentage ([6]; Safety Population): 28.6% | Participants who experienced at least 1 study drug-related TEAE, number ([6]; Safety Population): 3 participants | Participants who experienced at least 1 study drug-related TEAE, percentage ([6]; Safety Population): 10.7% | Participants with a TEAE with a maximum severity of moderate, number ([6]; Safety Population): 4 participants | Participants with a TEAE with a maximum severity of moderate, percentage ([6]; Safety Population): 14.3% | Participants with at least 1 TEAE that led to discontinuation of the study drug, number ([6]; Safety Population): 1 participants | Participants with at least 1 TEAE that led to discontinuation of the study drug, percentage ([6]; Safety Population): 3.6% | Participants who experienced a TESAE / SAE, number ([6]; hyperventilation and multiple fractures, both rated not related to the study drug): Two | Participants who experienced a TESAE, percentage of participants overall ([6]; percentage of participants overall): 1.8% | Participants who experienced a severe TEAE, number ([6]; severe TEAE of multiple fractures): One | Participants who experienced a severe TEAE, percentage of all participants ([6]; severe TEAE of multiple fractures, percentage of all participants): 0.9% | Reduction of LDL-C levels when compared to placebo ([1]; ezetimibe mono-therapy, patients with hypercholesterolemia): less than 20%

CCOC(=O)N1c2ccc(C(F)(F)F)cc2[C@@H](N(Cc2cc(C(F)(F)F)cc(C(F)(F)F)c2)C(=O)OC)C[C@H]1CC [Torcetrapib]
Decrease of LDL-C [1, 9]: 25% | Increase of HDL-C [2, 9]: 72% | Safety concerns in clinical development (in words) ([3]; torcetrapib, Phase III clinical trials): unexpected increase in cardiovascular events and death

COc1cc(F)c(C(C)C)cc1-c1ccc(C(F)(F)F)cc1CN1C(=O)O[C@H](c2cc(C(F)(F)F)cc(C(F)(F)F)c2)[C@@H]1C [anacetrapib]
Phase III clinical trial outcome (in words) [3]: reduced major cardiovascular events (MACE)
